Measurements from patent US20250367185A1, “TRANSLESION SYNTHESIS POLYMERASE INHIBITORS AND USES THEREOF” (THE UNIVERSITY OF VERMONT AND STATE AGRICULTURAL COLLEGE, priority 2022, published 2025).

Legend:
Format in all cases: cell-based
[1] = tested on: SARS-CoV-2 infected A549-ACE2+ cells
[2] = tested on: gH2AX in SARS-CoV-2 infected A549-ACE2+ cells; experiment: gH2AX expression in SARS-CoV-2 infected cells; settings: SARS-CoV-2 infected A549-ACE2+ cells at 48 hours
Protocol: Next, whether other genome instability markers were also repressed by the Compound 1 treatment in SARS-COV-2 infected cells was examined. Compound 1 treatment of the A549-ACE2+ cells suppressed transcript expression of all the DDR, TLS, and DNA repair genes. Likewise, the enhanced expression of gH2AX in SARS-CoV-2 infected A549-ACE2+ cells at 48 hours was suppressed by up to 40-fold post-Compound 1 treatment.

Dengue virus = Dengue virus viral load in infected A549-ACE2+ cells; settings: 10 μM, compared to non-treated cells, data at 24 hours, 48 hours and 5 days post-infection
Protocol: FIG. 2 is a graph showing the relative reduction of mRNA in untreated A549-ACE2+ cells (“Not Treated”) and in cells post-treatment with Compound 1 (“JH Treated”) at 24 and 48 hours post-infection with Dengue virus.
FIG. 3 is a graph showing the relative reduction of mRNA in untreated A549-ACE2+ cells and cells post treatment with Compound 1 (“JH Treated”) or untreated (“Not Treated”) 5 days post-infection with Dengue virus.
Compound 1 (10 μM) was administered to A549-ACE2+ cells infected with Dengue virus and the resulting viral loads were measured (FIGS. 2 and 3). Compared to non-treated cells, those treated with Compound 1 suppressed Dengue virus by 77-fold. Data is shown 24 hours, 48 hours, and 5 days post-infection (PI).

SARS-COV-2 = SARS-COV-2 proliferation in cell lines, relative mRNA content
[3] = tested on: A549-ACE2+ cells infected with SARS-COV-2; experiment: Microsatellite instability (MSI) in SARS-COV-2 infected cells
[4] = tested on: DDR, TLS, and DNA repair genes in A549-ACE2+ cells
[5] = tested on: p62 and LC3 in SARS-COV-2 infected cells

CC(C)CC(=O)c1c(Nc2ccc(C(=O)O)cc2Cl)[nH]c2c(Cl)ccc([N+](=O)[O-])c2c1=O [Compound 1, 3-chloro-4-((8-chloro-3-(3-methylbutanoyl)-5-nitro-4-oxo-1,4-dihydroquinolin-2-yl)amino)benzoic acid]
rescue of telomere instability [1]: did not rescue | suppression of enhanced gH2AX expression [2]: up to 40 fold | suppression of Dengue virus (viral load) (Dengue virus): 77 fold | proliferation of SARS-COV-2, relative mRNA content in cells (SARS-COV-2; A549-ACE2+ cells): directly suppress | proliferation of SARS-COV-2, relative mRNA content in cells (SARS-COV-2; Calu-3 cells): directly suppress | proliferation of SARS-COV-2, relative mRNA content in cells (SARS-COV-2; Vero cells): directly suppress | SARS-COV-2-dependent MSI [3]: suppress | transcript expression of all the DDR, TLS, and DNA repair genes [4]: suppressed | expression of LC3 [5]: significantly increases | expression of p62 [5]: significantly increases
